Measurements: PMC7201885 (The Journal of General Physiology, 2020)
Several values for one entry are separate records, joined by “and”; a condition that tells them apart may be missing. Equal entries are not always repeated. Where two headings read alike, the source gives them in different places. Values belong to the compound of their own block, whether it stands above or below them.

Experiments:
[1] = biological target: R271A nvTRPM2 (Nematostella vectensis, UniProt A7T1N0, R271A); experiment: Inside-out patch-clamp, R271A nvTRPM2; format: cell-based
Chain of R271A nvTRPM2 (A7T1N0 whole entry R271A): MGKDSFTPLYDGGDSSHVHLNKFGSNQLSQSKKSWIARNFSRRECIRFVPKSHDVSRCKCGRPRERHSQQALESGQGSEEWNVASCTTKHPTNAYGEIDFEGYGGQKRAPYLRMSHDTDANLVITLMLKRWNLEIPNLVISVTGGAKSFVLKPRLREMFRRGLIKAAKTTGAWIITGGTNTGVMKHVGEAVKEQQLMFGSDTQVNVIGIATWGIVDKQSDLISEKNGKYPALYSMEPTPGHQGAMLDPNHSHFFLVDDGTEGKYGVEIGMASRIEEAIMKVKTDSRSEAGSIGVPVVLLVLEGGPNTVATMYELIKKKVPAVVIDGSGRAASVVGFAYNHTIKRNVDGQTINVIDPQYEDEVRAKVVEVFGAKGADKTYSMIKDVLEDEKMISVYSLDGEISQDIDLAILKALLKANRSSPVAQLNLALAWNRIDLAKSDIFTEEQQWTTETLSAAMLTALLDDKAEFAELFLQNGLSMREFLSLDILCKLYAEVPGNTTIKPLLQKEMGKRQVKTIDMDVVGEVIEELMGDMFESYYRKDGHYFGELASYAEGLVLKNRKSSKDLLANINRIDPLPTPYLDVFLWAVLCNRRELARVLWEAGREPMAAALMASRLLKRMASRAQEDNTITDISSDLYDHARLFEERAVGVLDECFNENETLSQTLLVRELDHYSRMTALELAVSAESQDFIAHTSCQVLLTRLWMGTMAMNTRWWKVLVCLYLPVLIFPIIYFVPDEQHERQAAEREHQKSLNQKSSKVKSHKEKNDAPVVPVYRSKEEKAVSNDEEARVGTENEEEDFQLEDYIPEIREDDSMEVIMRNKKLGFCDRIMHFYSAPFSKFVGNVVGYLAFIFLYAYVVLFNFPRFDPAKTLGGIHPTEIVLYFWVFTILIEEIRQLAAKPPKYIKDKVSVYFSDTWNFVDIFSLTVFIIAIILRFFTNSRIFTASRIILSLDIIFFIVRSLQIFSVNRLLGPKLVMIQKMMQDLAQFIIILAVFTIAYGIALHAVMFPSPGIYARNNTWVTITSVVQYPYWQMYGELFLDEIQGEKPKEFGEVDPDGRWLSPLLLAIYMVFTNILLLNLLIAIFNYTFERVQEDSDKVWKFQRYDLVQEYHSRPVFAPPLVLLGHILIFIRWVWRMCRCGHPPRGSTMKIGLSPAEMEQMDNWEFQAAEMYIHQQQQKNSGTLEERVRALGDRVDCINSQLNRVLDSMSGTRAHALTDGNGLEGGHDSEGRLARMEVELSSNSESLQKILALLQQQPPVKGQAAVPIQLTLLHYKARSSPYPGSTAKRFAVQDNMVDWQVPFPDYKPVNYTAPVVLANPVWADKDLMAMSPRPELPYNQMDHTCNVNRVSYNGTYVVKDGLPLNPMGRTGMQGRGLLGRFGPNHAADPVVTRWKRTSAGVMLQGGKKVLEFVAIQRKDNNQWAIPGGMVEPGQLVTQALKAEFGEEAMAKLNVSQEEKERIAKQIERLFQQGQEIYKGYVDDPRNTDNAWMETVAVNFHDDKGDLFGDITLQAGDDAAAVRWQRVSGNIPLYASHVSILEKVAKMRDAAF

[2] = biological target: R329A nvTRPM2 (Nematostella vectensis, UniProt A7T1N0, R329A); experiment: Inside-out patch-clamp, R329A nvTRPM2; format: cell-based
Chain of R329A nvTRPM2 (A7T1N0 whole entry R329A): as the sequence (A7T1N0 whole entry R271A) above, with A271R, R329A counted along it

[3] = system: hsTRPM2; conditions: cited from earlier work
[4] = biological target: T307A nvTRPM2 (Nematostella vectensis, UniProt A7T1N0, T307A); experiment: Inside-out patch-clamp, T307A nvTRPM2; format: cell-based
Chain of T307A nvTRPM2 (A7T1N0 whole entry T307A): as the sequence (A7T1N0 whole entry R271A) above, with A271R, T307A counted along it

[5] = biological target: T143A nvTRPM2 (Nematostella vectensis, UniProt A7T1N0, T143A); experiment: Inside-out patch-clamp, T143A nvTRPM2; format: cell-based
Chain of T143A nvTRPM2 (A7T1N0 whole entry T143A): as the sequence (A7T1N0 whole entry R271A) above, with T143A, A271R counted along it

[6] = biological target: nvTRPM2 (Nematostella vectensis, UniProt A7T1N0); experiment: Inside-out patch-clamp, full-length; format: cell-based; conditions: for Mode of action on nvTRPM2: compared with ADPR; for Maximal fractional activation: relative to current in 100 µM ADPR
Chain of nvTRPM2 (A7T1N0 whole entry): as the sequence (A7T1N0 whole entry R271A) above, with A271R counted along it

[7] = biological target: Y264A nvTRPM2 (Nematostella vectensis, UniProt A7T1N0, Y264A); experiment: Inside-out patch-clamp, Y264A nvTRPM2; format: cell-based
Chain of Y264A nvTRPM2 (A7T1N0 whole entry Y264A): as the sequence (A7T1N0 whole entry R271A) above, with Y264A, A271R counted along it

[8] = biological target: T179A nvTRPM2 (Nematostella vectensis, UniProt A7T1N0, T179A); experiment: Inside-out patch-clamp, T179A nvTRPM2; format: cell-based
Chain of T179A nvTRPM2 (A7T1N0 whole entry T179A): as the sequence (A7T1N0 whole entry R271A) above, with T179A, A271R counted along it

[9] = read-out: EC50 for channel activation, 125 µM Ca2+ + 2.5 µM PIP2
[10] = full-length nvTRPM2, 125 µM Ca2+
[11] = read-out: EC50 for nvTRPM2 channel activation, full-length nvTRPM2, 125 µM cytosolic Ca2+, Hill fit, −20 mV
[12] = read-out: EC50 for channel activation by Ca2+ (fractional Po), saturating ADPRP (1,000 µM) + 2.5 µM PIP2
[13] = saturating ADPRP (1,000 µM) + 2.5 µM PIP2
[14] = read-out: EC50 for channel activation by Ca2+ (fractional Po), saturating ADPRP (100 µM) + 2.5 µM PIP2
[15] = saturating ADPRP (100 µM) + 2.5 µM PIP2
[16] = 25 µM PIP2, 125 µM Ca2+ + 3.2 mM ADPR
[17] = 2.5 and 25 µM PIP2, 125 µM Ca2+ + 3.2 mM ADPR

SMILES: Nc1ncnc2c1ncn2[C@@H]1O[C@H](COP(=O)(O)OP(=O)(O)OC[C@H]2O[C@@H](O)C(O)[C@H]2O)C(O)[C@@H]1OP(=O)(O)O (some centres unmarked) [ADPRP, ADPR-2′-phosphate]
Hill coefficient nH for channel activation ([1]; 125 µM Ca2+ + 2.5 µM PIP2): 1.7 ± 0.2 | EC50 [1, 9]: 89 ± 5 nM | Hill coefficient nH for channel activation ([2]; 125 µM Ca2+ + 2.5 µM PIP2): 2.1 ± 0.2 | EC50 ([3]; read-out: EC50 for hsTRPM2, activation, inside-out patches, saturating cytosolic Ca2+, ref Tóth et al., 2015): 13000 ± 1000 nM | Mode of action on hsTRPM2 ([3]; ref Tóth et al., 2015): low-affinity partial agonist | Hill coefficient nH for channel activation ([4]; 125 µM Ca2+ + 2.5 µM PIP2): 1.6 ± 0.2 | EC50 [4, 9]: 12000 ± 1000 nM | Hill coefficient nH for channel activation ([5]; 125 µM Ca2+ + 2.5 µM PIP2): 1.8 ± 0.1 | EC50 [5, 9]: 1500 ± 100 nM | Mode of action on nvTRPM2 ([6]; 125 µM Ca2+): full agonist | Potency for activating WT nvTRPM2 relative to ADPR ([6]; EC50 ratio versus ADPR): approximately fivefold | Hill coefficient nH for channel activation ([6]; WT nvTRPM2, 125 µM Ca2+ + 2.5 µM PIP2): 1.8 ± 0.2 | Hill coefficient nH for channel activation [6, 10]: 2.1 ± 0.4 | EC50 ([6]; read-out: EC50 for channel activation, WT nvTRPM2, 125 µM Ca2+ + 2.5 µM PIP2): 310 ± 20 nM | EC50 [6, 11]: ~400 nM | Maximal fractional activation ([6]; 125 µM Ca2+): 1.06 ± 0.03 | Hill coefficient nH for channel activation ([7]; 125 µM Ca2+ + 2.5 µM PIP2): 1.8 ± 0.3 | Hill coefficient nH for channel activation ([8]; 125 µM Ca2+ + 2.5 µM PIP2): 1.4 ± 0.2 | EC50 [8, 9]: 3900 ± 500 nM

SMILES: CCCCCCCC(=O)OC[C@H](COP(=O)(O)O[C@@H]1[C@H](O)[C@H](O)[C@@H](OP(=O)(O)O)[C@H](OP(=O)(O)O)[C@H]1O)OC(=O)CCCCCCC [PIP2, phosphatydyl-inositol-4-5-bisphosphate]
Stimulation of macroscopic current by exogenous PIP2 [1, 16]: approximately twofold | Stimulation of macroscopic current by exogenous PIP2 [4, 17]: small fractional stimulation | Stimulation of macroscopic current by exogenous PIP2 [5, 17]: small fractional stimulation | Stimulation of macroscopic current by exogenous PIP2 ([6]; WT, 125 µM Ca2+ + 3.2 mM ADPR): only marginal additional stimulation | Stimulation of macroscopic current by exogenous PIP2 [7, 16]: ~40 fold | Stimulation of macroscopic current by exogenous PIP2 [8, 16]: ~80 fold

Continued, in another order:

EC50 ([1]; read-out: EC50 for channel activation by Ca2+ (fractional Po), saturating ADPRP (10 µM) + 2.5 µM PIP2): 1680 ± 40 nM | Hill coefficient nH for activation by Ca2+ ([1]; saturating ADPRP (10 µM) + 2.5 µM PIP2): 3.0 ± 0.2 | EC50 [2, 12]: 1100 ± 40 nM | Hill coefficient nH for activation by Ca2+ [2, 13]: 2.0 ± 0.2 | EC50 [4, 12]: 930 ± 50 nM | Hill coefficient nH for activation by Ca2+ [4, 13]: 1.9 ± 0.2 | EC50 [5, 14]: 640 ± 20 nM | Hill coefficient nH for activation by Ca2+ [5, 15]: 2.3 ± 0.2 | Hill coefficient nH for activation by Ca2+ ([6]; WT, saturating ADPRP (10 µM) + 2.5 µM PIP2): 1.7 ± 0.2 | EC50 [7, 12]: 2000 ± 100 nM | Hill coefficient nH for activation by Ca2+ [7, 13]: 1.8 ± 0.1 | EC50 [8, 14]: 1800 ± 100 nM | Hill coefficient nH for activation by Ca2+ [8, 15]: 2.3 ± 0.1
SMILES: [Ca+2] [Ca^2+]

Mode of action on nvTRPM2 ([6]; 125 µM Ca2+): similarly efficacious and potent as ADPR | Hill coefficient nH for channel activation [6, 10]: 1.3 ± 0.2 | EC50 [6, 11]: ~2700 nM and 2700 nM | Maximal fractional activation ([6]; 125 µM Ca2+): 1.1 ± 0.04
SMILES: Nc1ncnc2c1ncn2[C@H]1C[C@H](O)[C@@H](COP(=O)(O)OP(=O)(O)OC[C@H]2OC(O)[C@H](O)[C@@H]2O)O1 (some centres unmarked) [dADPR, 2′-deoxy-ADPR]
Mode of action on hsTRPM2 ([3]; larger maximal whole-cell currents compared with ADPR, ref Fliegert et al., 2017): super-agonist

Mode of action on nvTRPM2 ([6]; 125 µM Ca2+): low-affinity antagonist | Current induced by the analogue alone ([6]; 200 µM, 125 µM cytosolic Ca2+): only tiny currents | Reduction of currents elicited by 3.2 µM ADPR ([6]; coapplication of 200 µM ε-ADPR, 125 µM Ca2+): ~25%
SMILES: O=P(O)(OC[C@H]1OC(O)[C@H](O)[C@@H]1O)OP(=O)(O)OC[C@H]1O[C@@H](n2cnc3c2ncn2ccnc32)[C@H](O)[C@@H]1O (some centres unmarked) [ε-ADPR, 1,N^6-ethenoadenosine-5′-O-diphosphoribose]
Mode of action on hsTRPM2 ([3]; ref Iordanov et al., 2016): low-affinity antagonist
